Data reported in patent US9879004B2, “Substituted acetylene derivatives and their use as positive allosteric modulators of mGluR4” (Merck Patent GmbH, priority 2013, dated 2018).

Biological target: T1, mGluR4 (HEK293T-hmGluR4 cells) (Homo sapiens, UniProt Q14833)
T1 construct: host or cells: HEK293T
Test: HEK-293 mGluR4 cells cAMP assay with EC20 L-Glutamate (HTRF)
Format: cell-based
Details: positive allosteric activity at EC20 L-Glutamate, 10 μM Forskolin, cAMP HTRF readout, read-out: hrmGluR4/HEK293T-hmGluR4 (EC50)
Experimental: HEK-293 mGluR4 cells cAMP assay with EC20 L-Glutamate
Using mGluR4 suspension cell format, 10 μM Forskolin (final conc.) used to induce the production of cAMP.
Test the positive allosteric activity of the compounds of the invention at EC20 (2.3 μM for mGluR4 and 4.3 μM for mGluR6) L-Glutamate,
cAMP dymanic2 kit is intended for the direct quantitative determination of cAMP and its principle is based on HTRF technology.
Cells: HEK293T mGluR4 cells from Multispan, cat# C1191a lot# C1191a-040910 Culture Media: DMEM+GlutaMAX1+10% dialyzed FBS, 100 mM Sodium Pyruvate, 1 ug/ml puromycin.
Glutamine Starvation Media: DMEM without GlutaMax for plating the cells (glutamine starvation overnight). DMEM high Glucose, without phenol red, glutamine, or sodium pyruvate+10% dialyzed FBS, 100 mM Sodium Pyruvate, 1 ug/ml puromycin, 10 mM Hepes.
Cell Preparation: split cells at 80%-90% confluence. The following day, rinse the cells with DMEM without GlutaMax and change to Glutamine Starvation Media. Incubate overnight.
Prepare compound plate: Perform compound serial dilution (uses Matrix 4341 plate), using the Bravo liquid handling platform protocol (compound serial dilution) which adds DMSO to columns 1-24 (except cols. 3 and 13). Serial dilute compounds located in columns 3 and 13 at a 1:3 ratio; 10 points (10 ul of 3 mM compound into 20 ul DMSO). Use the Bravo liquid handling platform to transfer 1 ul from the serial dilution plate into Matrix 4314 plate to create stamp plates.
Dilute 20 mM Forskolin (in DMSO) stock solution in HBSS buffer to make a 20 uM solution (forskolin buffer; 2× solution). To the forskolin buffer, add glutamate to a concentration of 8 uM (compound dilution buffer; 2×EC20 glutamate and forskolin).
Using a multidrop, add 50 ul/well of compound dilution buffer to columns 1-22 of the 2 ul compound stamp plate. Columns 23 and 24 receive forskolin buffer containing 400 uM glutamate (EC100 glutamate; 2× solution). Columns 1 and 2 receive compound dilution buffer containing EC20 glutamate, which is the basal control. Add a glutamate dose response to row P of compound plate. Prepare the dose response by serial diluting glutamate at a 1:3 ratio in forskolin buffer starting at 2 mM glutamate (2×). Dilute the glutamate 9 times and transfer to compound plate.
Harvest cells: Rinse cells with pre-warmed HBSS-10 mM HEPES (without Ca Mg) and dissociate the cells from the flask with versene. Centrifuge the cells, remove the supernatant and suspend in pre-warmed HBSS+10 mM Hepes. Count the cells and centrifuge. Remove the supernatant and suspend the cells in HBSS+Hepes (with Ca Mg) at a density of 400,000 cells/ml.
Dispense 5 ul from the diluted compound plate into Greiner low volume cell plate using the Bravo liquid handling platform. Using a Multidrop with the small tubing cassette, dispense 5 ul of cells (2000 cells/well) onto the compounds contained in the low volume plates. Incubate the cells at 37° C., 5% CO2 for 30 minutes in the incubator.
Prepare cAMP-d2 and anti-cAMP-Crytate according to the instructions for the two step assay (see Cisbio manual) and add 10 ul of the mixed reagent to each well of the assay plate using the Multidrop. Incubate at room temperature for 60 minutes and read on the Envision plate reader using the mGluR low volume cAMP HTRF 384 well protocol. The readout is the calculated fluorescence ratio ([…]*10000).

T1 sequence (Q14833 33-912): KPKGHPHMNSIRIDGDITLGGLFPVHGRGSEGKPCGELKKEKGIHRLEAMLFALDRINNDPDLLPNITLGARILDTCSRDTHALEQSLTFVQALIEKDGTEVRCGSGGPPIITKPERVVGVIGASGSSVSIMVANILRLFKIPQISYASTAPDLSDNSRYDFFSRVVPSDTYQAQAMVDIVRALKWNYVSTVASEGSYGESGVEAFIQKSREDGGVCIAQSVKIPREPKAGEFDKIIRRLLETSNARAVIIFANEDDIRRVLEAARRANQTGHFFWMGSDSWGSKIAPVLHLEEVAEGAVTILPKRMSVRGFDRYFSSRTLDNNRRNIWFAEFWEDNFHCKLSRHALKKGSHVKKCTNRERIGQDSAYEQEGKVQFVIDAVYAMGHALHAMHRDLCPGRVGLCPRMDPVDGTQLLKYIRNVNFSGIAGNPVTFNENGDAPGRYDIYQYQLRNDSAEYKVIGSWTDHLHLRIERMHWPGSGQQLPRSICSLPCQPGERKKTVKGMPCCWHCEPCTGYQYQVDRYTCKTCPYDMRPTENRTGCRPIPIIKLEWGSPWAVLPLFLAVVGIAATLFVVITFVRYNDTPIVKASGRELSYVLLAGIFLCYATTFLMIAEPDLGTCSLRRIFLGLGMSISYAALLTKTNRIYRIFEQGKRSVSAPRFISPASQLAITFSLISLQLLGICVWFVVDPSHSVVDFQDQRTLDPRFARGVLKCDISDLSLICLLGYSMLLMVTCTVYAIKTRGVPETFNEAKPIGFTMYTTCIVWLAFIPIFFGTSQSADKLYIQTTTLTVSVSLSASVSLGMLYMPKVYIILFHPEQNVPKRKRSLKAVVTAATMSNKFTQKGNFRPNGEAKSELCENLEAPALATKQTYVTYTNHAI

EC50 | SMILES
1000 to 10000 nM | Clc1cccc(C#Cc2ccnc3ccccc23)c1 [Compound 9, 4-(3-Chloro-phenylethynyl)-quinoline]
< 1000 nM | Fc1ccc(C#Cc2ccnc3ccccc23)cc1F [Compound 5, 4-(3,4-Difluoro-phenylethynyl)-quinoline]
< 1000 nM | C(#Cc1ccnc2ccccc12)c1ccccc1 [Compound 1, 4-Phenylethynyl-quinoline]
1000 to 10000 nM | Fc1ccccc1C#Cc1ccnc2ccccc12 [Compound 7, 4-(2-Fluoro-phenylethynyl)-quinoline]
1000 to 10000 nM | Fc1ccccc1C#Cc1ccnc2[nH]ccc12 [Compound 8, 4-(2-Fluoro-phenylethynyl)-1H-pyrrolo[2,3-b]pyridine]
< 1000 nM | Fc1cccc(C#Cc2ccnc3ccccc23)c1 [Compound 2, 4-(3-Fluoro-phenylethynyl)-quinoline]
< 1000 nM | C(#Cc1ccnc2ccccc12)c1ccsc1 [Compound 3, 4-Thiophen-3-ylethynyl-quinoline]
1000 to 10000 nM | C(#Cc1ccnc2ccccc12)c1cccs1 [Compound 6, 4-Thiophen-2-ylethynyl-quinoline]
< 1000 nM | Fc1ccc(C#Cc2ccnc3ccccc23)cc1 [Compound 4, 4-(4-Fluoro-phenylethynyl)-quinoline]
